From ChEMBL document CHEMBL5131506, “Exploration of 2-phenylquinoline-4-carboxamide linked benzene sulfonamide derivatives as isoform selective inhibitors of transmembrane human carbonic anhydrases” (Eur J Med Chem, 2022)
pKi: −log10 of the molar value.

Legend:
Carbonic anhydrase 1 = Carbonic anhydrase 1 (Homo sapiens, UniProt P00915); assay: Inhibition of human recombinant carbonic anhydrase 1 assessed as inhibition constant incubated for 10 mins by phenol red dye based stopped-flow CO2 hydration assay
Carbonic anhydrase 12 = Carbonic anhydrase 12 (Homo sapiens, UniProt O43570); assay: Inhibition of human recombinant carbonic anhydrase 12 assessed as inhibition constant incubated for 10 mins by phenol red dye based stopped-flow CO2 hydration assay
Carbonic anhydrase 2 = Carbonic anhydrase 2 (Homo sapiens, UniProt P00918); assay: Inhibition of human recombinant carbonic anhydrase 2 assessed as inhibition constant incubated for 10 mins by phenol red dye based stopped-flow CO2 hydration assay
Carbonic anhydrase 9 = Carbonic anhydrase 9 (Homo sapiens, UniProt Q16790); assay: Inhibition of human recombinant carbonic anhydrase 9 assessed as inhibition constant incubated for 10 mins by phenol red dye based stopped-flow CO2 hydration assay
Carbonic anhydrase 4 = Carbonic anhydrase 4 (Homo sapiens, UniProt P22748); assay: Inhibition of human recombinant carbonic anhydrase 4 assessed as inhibition constant incubated for 10 mins by phenol red dye based stopped-flow CO2 hydration assay
Carbonic anhydrase 4, sequence (P22748 whole entry): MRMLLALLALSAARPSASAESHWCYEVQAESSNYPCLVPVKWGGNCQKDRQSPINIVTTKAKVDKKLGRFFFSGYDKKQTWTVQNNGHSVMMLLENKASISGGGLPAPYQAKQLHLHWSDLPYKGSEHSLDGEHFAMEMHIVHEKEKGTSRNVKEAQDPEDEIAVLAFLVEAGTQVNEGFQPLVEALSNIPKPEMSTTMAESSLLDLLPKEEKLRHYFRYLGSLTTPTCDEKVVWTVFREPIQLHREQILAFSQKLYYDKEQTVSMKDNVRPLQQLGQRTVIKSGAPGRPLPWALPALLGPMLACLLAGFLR

Carbonic anhydrase 1, sequence (P00915 whole entry): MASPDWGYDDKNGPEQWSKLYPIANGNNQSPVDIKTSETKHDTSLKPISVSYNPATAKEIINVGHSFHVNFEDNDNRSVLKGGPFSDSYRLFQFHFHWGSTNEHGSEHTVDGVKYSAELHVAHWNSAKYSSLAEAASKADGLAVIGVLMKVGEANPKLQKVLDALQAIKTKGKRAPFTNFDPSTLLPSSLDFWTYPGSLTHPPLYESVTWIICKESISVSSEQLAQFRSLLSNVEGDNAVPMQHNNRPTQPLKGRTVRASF
Carbonic anhydrase 12, sequence (O43570 whole entry): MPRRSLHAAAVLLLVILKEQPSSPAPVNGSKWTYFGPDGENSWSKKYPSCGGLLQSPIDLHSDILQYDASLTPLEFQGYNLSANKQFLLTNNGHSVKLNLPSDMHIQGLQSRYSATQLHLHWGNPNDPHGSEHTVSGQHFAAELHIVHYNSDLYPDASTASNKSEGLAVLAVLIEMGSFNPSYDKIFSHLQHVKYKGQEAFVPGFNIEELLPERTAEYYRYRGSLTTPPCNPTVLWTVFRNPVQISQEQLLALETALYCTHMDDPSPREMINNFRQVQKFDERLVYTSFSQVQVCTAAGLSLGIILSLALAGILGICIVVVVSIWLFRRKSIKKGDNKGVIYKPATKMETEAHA

Row | SMILES | pKi (Carbonic anhydrase 1) | pKi (Carbonic anhydrase 12) | pKi (Carbonic anhydrase 2) | pKi (Carbonic anhydrase 9) | pKi (Carbonic anhydrase 4)
1 | NS(=O)(=O)c1ccc(NC(=O)c2cc(-c3cccc(C(F)(F)F)c3)nc3ccccc23)cc1 | 6.18 | 6.77 | 6.58 | 6.38 | –
2 | NS(=O)(=O)c1ccc(CCNC(=O)c2cc(-c3ccccc3)nc3ccc(Br)cc23)cc1 | 5.20 | 6.12 | 6.06 | 7.23 | –
3 | CCN(C1CC(C)S(=O)(=O)c2sc(S(N)(=O)=O)cc21)S(=O)(=O)c1cccc2cccnc12 (stereo not drawn) | – | – | 8.30 | – | 8.00
4 | NS(=O)(=O)c1cccc(NC(=O)c2cc(-c3ccccc3)nc3ccccc23)c1 | 6.01 | 8.02 | 6.53 | 7.17 | –
5 | NS(=O)(=O)c1cccc(NC(=O)c2cc(-c3ccc4c(c3)OCO4)nc3ccccc23)c1 | 5.84 | 7.05 | 6.32 | 7.18 | –
6 | NS(=O)(=O)c1ccc(CCNC(=O)c2cc(-c3cccc(C(F)(F)F)c3)nc3ccccc23)cc1 | 5.74 | 8.16 | 7.04 | 7.13 | –
7 | NS(=O)(=O)c1ccc(CCNC(=O)c2cc(-c3ccc4c(c3)OCO4)nc3ccccc23)cc1 | 5.44 | 6.26 | 7.74 | 7.64 | –
8 | NS(=O)(=O)c1ccc(NC(=O)c2cc(-c3cccc(Cl)c3)nc3ccccc23)cc1 | 6.08 | 7.14 | 6.85 | 7.01 | –
9 | NS(=O)(=O)c1ccc(CCNC(=O)c2cc(-c3cccc(Br)c3)nc3ccccc23)cc1 | 6.01 | 7.51 | 8.02 | 7.41 | –
10 | NS(=O)(=O)c1cccc(NC(=O)c2cc(-c3cccc(Br)c3)nc3ccccc23)c1 | 6.07 | 6.47 | 6.81 | 7.04 | –
11 | NS(=O)(=O)c1cc(C(=O)CSc2nc3c(cnc4ccccc43)[nH]2)ccc1Cl | 8.89 | 10.00 | 10.52 | – | –
12 | COc1ccc2nc(-c3ccc(Cl)cc3Cl)cc(C(=O)NCCc3ccc(S(N)(=O)=O)cc3)c2c1 | 5.20 | 6.36 | 6.17 | 7.13 | –
13 | COc1ccc2nc(-c3ccccc3)cc(C(=O)NCCc3ccc(S(N)(=O)=O)cc3)c2c1 | 6.03 | 6.41 | 6.31 | 7.12 | –
14 | NS(=O)(=O)c1ccc(NC(=O)c2cc(-c3ccccc3)nc3ccccc23)cc1 | 6.27 | 6.89 | 7.26 | 7.15 | –
15 | COc1ccc2nc(-c3ccccc3OC)cc(C(=O)NCCc3ccc(S(N)(=O)=O)cc3)c2c1 | 6.04 | 6.07 | 6.42 | 7.17 | –
16 | NS(=O)(=O)c1cccc(NC(=O)c2cc(-c3cccc(C(F)(F)F)c3)nc3ccccc23)c1 | 5.42 | 6.44 | 7.06 | 7.19 | –
17 | NS(=O)(=O)c1ccc(NC(=O)Cn2cc(/C=C/C(=O)c3cccc(C(F)(F)F)c3)c3ccccc32)cc1 | – | – | 8.64 | 7.51 | –
18 | NS(=O)(=O)c1ccc(CCNC(=O)c2cc(-c3ccccc3)nc3ccc(Cl)cc23)cc1 | 5.72 | 8.17 | 7.37 | 7.32 | –
19 | NS(=O)(=O)c1ccc(NC(=O)c2cc(-c3ccc4c(c3)OCO4)nc3ccccc23)cc1 | 6.59 | 7.14 | 8.15 | 8.19 | –
20 | O=C(/C=C/c1sc(N2CCOCC2)nc1-c1ccc([N+](=O)[O-])cc1)Nc1ccc(Br)cc1 | – | 8.06 | 8.03 | 7.26 | –

Next, values leading:

Row | pKi (Carbonic anhydrase 1) | pKi (Carbonic anhydrase 12) | pKi (Carbonic anhydrase 2) | pKi (Carbonic anhydrase 9) | pKi (Carbonic anhydrase 4) | SMILES
21 | 6.18 | 6.37 | 7.01 | 7.29 | – | COc1ccc2nc(-c3ccc(OC)c(OC)c3)cc(C(=O)Nc3cccc(S(N)(=O)=O)c3)c2c1
22 | 6.26 | 7.33 | 7.55 | 7.67 | – | COc1ccc2nc(-c3ccccc3C)cc(C(=O)Nc3ccc(S(N)(=O)=O)cc3)c2c1
23 | 6.10 | 6.67 | 6.52 | 6.51 | – | COc1ccc(-c2cc(C(=O)Nc3ccc(S(N)(=O)=O)cc3)c3cc(Cl)ccc3n2)cc1OC
24 | 7.04 | 7.05 | 7.45 | 8.01 | – | COc1ccc(-c2cc(C(=O)NCCc3ccc(S(N)(=O)=O)cc3)c3ccccc3n2)cc1OC
25 | 6.05 | 7.19 | 7.21 | 7.03 | – | COc1ccc2nc(-c3ccc(Cl)cc3Cl)cc(C(=O)Nc3cccc(S(N)(=O)=O)c3)c2c1
26 | 5.40 | 6.12 | 6.53 | 6.61 | – | Cc1ccc(-c2cc(C(=O)Nc3cccc(S(N)(=O)=O)c3)c3cc(Cl)ccc3n2)cc1
27 | 6.55 | 8.06 | 7.35 | 7.43 | – | COc1ccc2nc(-c3ccccc3OC)cc(C(=O)Nc3ccc(S(N)(=O)=O)cc3)c2c1
28 | 6.12 | 6.52 | 6.73 | 7.04 | – | COc1ccc(-c2cc(C(=O)NCCc3ccc(S(N)(=O)=O)cc3)c3cc(Cl)ccc3n2)cc1OC
29 | 6.08 | 6.37 | 6.60 | 6.61 | – | COc1ccc(-c2cc(C(=O)Nc3cccc(S(N)(=O)=O)c3)c3cc(Cl)ccc3n2)cc1OC
30 | 6.38 | 7.12 | 7.58 | 8.04 | – | COc1ccc2nc(-c3ccc(OC)c(OC)c3)cc(C(=O)Nc3ccc(S(N)(=O)=O)cc3)c2c1
31 | 6.27 | 7.25 | 7.04 | 7.45 | – | COc1ccc2nc(-c3ccccc3)cc(C(=O)Nc3ccc(S(N)(=O)=O)cc3)c2c1
32 | 5.26 | 6.66 | 6.23 | 7.15 | – | COc1ccc2nc(-c3ccc(OC)c(OC)c3)cc(C(=O)NCCc3ccc(S(N)(=O)=O)cc3)c2c1
33 | 5.18 | 7.15 | 6.76 | 6.48 | – | NS(=O)(=O)c1cccc(NC(=O)c2cc(-c3ccccc3)nc3ccc(Cl)cc23)c1
34 | 6.05 | 7.12 | 6.41 | 7.11 | – | COc1ccc(-c2cc(C(=O)Nc3cccc(S(N)(=O)=O)c3)c3ccccc3n2)cc1OC
35 | 5.27 | 6.58 | 6.22 | 7.03 | – | COc1ccc(-c2cc(C(=O)Nc3ccc(S(N)(=O)=O)cc3)c3ccccc3n2)c(OC)c1
36 | 6.07 | 6.28 | 6.59 | 6.46 | – | NS(=O)(=O)c1cccc(NC(=O)c2cc(-c3cccc(Cl)c3)nc3ccc(Cl)cc23)c1
